Test results: patent publication US11229623B2 (GlaxoSmithKline Intellectual Property (No.2) Limited, priority 2016, dated 2022)

Molecular target: T1, human TRPV4 (Homo sapiens, UniProt Q9HBA0)
T1 construct: expressed in transfected cells; host or cells: BHK/AC9 cells transduced with BacMam virus
Assay: FLIPR assay for hTRPV4 expressed in BHK cells: inhibition of Agonist Compound-induced calcium signal
Type: cell-based
Details: hTRPV4 in BHK/AC9 cells, FLIPR calcium signal, agonist at EC80; reported as range class; read-out: IC50
Outline: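 BHK/AC9 cells transduced with BacMam human TRPV4 (MOI 78), plated 15,000 per well and cultured 24 h at 37° C. Loaded with 2 μM Fluo-4 AM plus 500 μM Brilliant Black in HBSS for 1-1.5 h at room temperature in the dark; intracellular calcium signal read by FLIPR fluorescence.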

T1 sequence (Q9HBA0 whole entry): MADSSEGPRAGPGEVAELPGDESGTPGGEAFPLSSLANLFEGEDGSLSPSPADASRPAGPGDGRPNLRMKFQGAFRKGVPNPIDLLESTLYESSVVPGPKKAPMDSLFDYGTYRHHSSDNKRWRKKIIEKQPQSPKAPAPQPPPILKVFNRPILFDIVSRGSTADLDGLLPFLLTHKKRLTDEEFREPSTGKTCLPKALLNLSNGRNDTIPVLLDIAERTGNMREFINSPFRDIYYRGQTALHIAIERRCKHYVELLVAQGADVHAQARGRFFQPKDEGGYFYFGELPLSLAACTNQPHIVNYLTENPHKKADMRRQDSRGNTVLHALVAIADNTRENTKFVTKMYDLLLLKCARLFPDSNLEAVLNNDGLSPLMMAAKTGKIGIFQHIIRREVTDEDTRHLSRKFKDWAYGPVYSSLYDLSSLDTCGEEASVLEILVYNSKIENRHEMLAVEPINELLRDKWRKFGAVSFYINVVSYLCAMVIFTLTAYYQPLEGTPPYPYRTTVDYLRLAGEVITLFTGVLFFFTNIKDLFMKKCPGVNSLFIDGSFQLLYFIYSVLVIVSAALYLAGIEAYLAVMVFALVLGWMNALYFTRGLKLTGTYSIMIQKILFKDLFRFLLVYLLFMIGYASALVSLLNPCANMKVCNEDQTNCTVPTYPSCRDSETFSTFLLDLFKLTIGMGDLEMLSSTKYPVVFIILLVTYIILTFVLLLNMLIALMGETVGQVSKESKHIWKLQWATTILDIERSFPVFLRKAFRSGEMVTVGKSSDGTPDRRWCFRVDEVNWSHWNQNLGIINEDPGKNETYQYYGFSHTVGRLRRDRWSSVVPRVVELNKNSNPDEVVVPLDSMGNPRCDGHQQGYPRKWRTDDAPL

SMILES | IC50 [µM]
N#Cc1ccc(O[C@H]2CN(S(=O)(=O)c3ccc(Cl)cc3Cl)C[C@@]2(O)CO)cn1 [Example 73, 5-(((3S,4R)-1-((2,4-dichlorophenyl)sulfonyl)-4-hydroxy-4-(hydroxymethyl)pyrrolidin-3-yl)oxy)picolinonitrile] | 0.01 to 0.1
N#Cc1cc(C(F)(F)F)ccc1S(=O)(=O)N1C[C@H](Oc2ccc(Cl)c(Cl)c2)[C@](O)(CO)C1 [Example 39, 2-(((3R,4S)-4-(3,4-dichlorophenoxy)-3-hydroxy-3-(hydroxymethyl)pyrrolidin-1-yl)sulfonyl)-5-(trifluoromethyl)benzonitrile] | 0.01 to 0.1
N#Cc1ccccc1S(=O)(=O)N1C[C@H](Oc2ccc(Cl)cc2)[C@](O)(CO)C1 [Example 107, 2-(((3R,4S)-4-(4-chlorophenoxy)-3-hydroxy-3-(hydroxymethyl)pyrrolidin-1-yl)sulfonyl)benzonitrile] | 0.01 to 0.1
O=S(=O)(c1ccc(C(F)(F)F)cc1F)N1C[C@H](Oc2ccc3nonc3c2)[C@](O)(CO)C1 [Example 125, (3R,4S)-4-(benzo[c][1,2,5]oxadiazol-5-yloxy)-1-((2-fluoro-4-(trifluoromethyl)phenyl)sulfonyl)-3-(hydroxymethyl)pyrrolidin-3-ol] | 0.01 to 0.1
N#Cc1ccc(O[C@H]2CN(S(=O)(=O)c3ccc(-c4ccccc4)cc3C#N)C[C@@]2(O)CO)cc1F [Example 218, 4-(((3R,4S)-4-(4-cyano-3-fluorophenoxy)-3-hydroxy-3-(hydroxymethyl)pyrrolidin-1-yl)sulfonyl)-[1,1′-biphenyl]-3-carbonitrile] | 0.01 to 0.1
N#Cc1ccc(O[C@H]2CN(S(=O)(=O)c3ccc(OC(F)(F)F)cc3C#N)C[C@@]2(O)CO)cc1F [compound 232, 4-(((3S,4R)-1-((2-cyano-4-(trifluoromethoxy)phenyl)sulfonyl)-4-hydroxy-4-(hydroxymethyl)pyrrolidin-3-yl)oxy)-2-fluorobenzonitrile] | 0.0001 to 0.01
N#Cc1cc(Cl)ccc1S(=O)(=O)N1C[C@H](Oc2ccc(F)c(F)c2F)[C@](O)(CO)C1 [Example 23, 5-chloro-2-(((3R,4S)-3-hydroxy-3-(hydroxymethyl)-4-(2,3,4-trifluorophenoxy)pyrrolidin-1-yl)sulfonyl)benzonitrile] | 0.0001 to 0.01

Continued, values first:

IC50 [µM] | SMILES
0.0001 to 0.01 | N#Cc1ccc(O[C@H]2CN(S(=O)(=O)c3ccc(C(F)(F)F)cc3C#N)C[C@@]2(O)CO)cc1F [Example 1, 4-(((3S,4R)-1-((2-cyano-4-(trifluoromethyl)phenyl)sulfonyl)-4-hydroxy-4-(hydroxymethyl)pyrrolidin-3-yl)oxy)-2-fluorobenzonitrile]
0.0001 to 0.01 | CC#Cc1ccc(S(=O)(=O)N2C[C@H](Oc3ccc(C#N)c(F)c3)[C@](O)(CO)C2)cc1 [Example 222, 2-fluoro-4-(((3S,4R)-4-hydroxy-4-(hydroxymethyl)-1-((4-(prop-1-yn-1-yl)phenyl)sulfonyl)pyrrolidin-3-yl)oxy)benzonitrile]
0.0001 to 0.01 | C[C@H](O)[C@]1(O)CN(S(=O)(=O)c2ccc(F)cc2C#N)C[C@@H]1Oc1ccc(C#N)c(F)c1 [Example 201, 4-(((3S,4R)-1-((2-cyano-4-fluorophenyl)sulfonyl)-4-hydroxy-4-((S)-1-hydroxyethyl)pyrrolidin-3-yl)oxy)-2-fluorobenzonitrile]
0.0001 to 0.01 | N#Cc1ccc(O[C@H]2CN(S(=O)(=O)c3ccc(Cl)cc3Cl)C[C@@]2(O)CO)cc1F [Example 2, 4-(((3S,4R)-1-((2,4-dichlorophenyl)sulfonyl)-4-hydroxy-4-(hydroxymethyl)pyrrolidin-3-yl)oxy)-2-fluorobenzonitrile]
0.0001 to 0.01 | N#Cc1ccc(O[C@H]2CN(S(=O)(=O)c3ccccc3C#N)C[C@@]2(O)CO)c(OCC(F)(F)F)c1 [Example 185, 4-(((3S,4R)-1-((2-cyanophenyl)sulfonyl)-4-hydroxy-4-(hydroxymethyl)pyrrolidin-3-yl)oxy)-3-(2,2,2-trifluoroethoxy) benzonitrile]
